Laboratory results taken from the NIST ThermoML archive (doi:10.1016/j.jct.2005.07.019).

Experiment: mn = molality of the nth substance listed, in mol/kg
Settings: 350 kPa, Liquid, Extra sensitive DSC

NC(CO)C(=O)O (configuration not stated) [(.+-.)-serine] + O
apparent molar heat capacity [J/K/mol]
Settings | m1 = 0.015 | m1 = 0.0308 | m1 = 0.0509 | m1 = 0.0807 | m1 = 0.1251 | m1 = 0.2505
278.15 K | 50 | 53.4 | 56.4 | 56.6 | 57.8 | 68
283.15 K | 71 | 74.1 | 76.7 | 76.7 | 77.7 | 86.3
288.15 K | 87 | 90.3 | 92.6 | 92.6 | 93.2 | 101
293.15 K | 101 | 103.7 | 105.7 | 105.8 | 106.1 | 113.1
298.15 K | 112 | 114.5 | 116.5 | 116.5 | 116.7 | 123
303.15 K | 121 | 123.9 | 125.8 | 125.7 | 125.7 | 131.4
308.15 K | 130 | 132.2 | 133.9 | 133.6 | 133.4 | 138.6
313.15 K | 137 | 139.3 | 140.7 | 140.4 | 140.2 | 144.9
318.15 K | 143 | 145.2 | 146.5 | 146.2 | 145.8 | 150.2
323.15 K | 149 | 150.3 | 151.6 | 151.3 | 150.9 | 154.9
328.15 K | 154 | 155 | 156.2 | 155.8 | 155.3 | 158.9
333.15 K | 158 | 159.4 | 160.4 | 159.9 | 159.3 | 162.6
338.15 K | 162 | 163.3 | 164.2 | 163.6 | 162.9 | 165.92
343.15 K | 166 | 166.3 | 167.2 | 166.6 | 165.9 | 168.74
348.15 K | 168 | 169 | 170.1 | 169.5 | 168.8 | 171.27
353.15 K | 170 | 171.6 | 172.5 | 172.1 | 171.2 | 173.56
358.15 K | 172 | 173.7 | 174.6 | 174 | 173.1 | 175.45
363.15 K | 174 | 175.7 | 176.6 | 176.2 | 175.3 | 177.16
368.15 K | 175 | 177.9 | 178.6 | 178.4 | 177 | 178.66
373.15 K | 177 | 179.9 | 180.5 | 179.7 | 178.2 | 179.8
378.15 K | 177 | 180.9 | 181.3 | 180.7 | 179.3 | 180.67
383.15 K | 177 | 181.7 | 182.2 | 181.5 | 180.2 | 181.46
388.15 K | 175 | 182.6 | 183 | 182.2 | 180.9 | 181.91
393.15 K | 173 | 183.3 | 183.3 | 182.8 | 181.6 | 182.2

N[C@H](CO)C(=O)O [(R)-(-)-serine] + O
apparent molar heat capacity [J/K/mol]
Settings | m1 = 0.0151 | m1 = 0.0301 | m1 = 0.0501 | m1 = 0.08 | m1 = 0.1251 | m1 = 0.2505 | m1 = 0.35
278.15 K | 54.5 | 55.7 | 56.5 | 58.3 | 60.7 | 66.74 | 71.19
283.15 K | 75.2 | 76.1 | 76.8 | 78.4 | 80.6 | 85.06 | 89.13
288.15 K | 91.1 | 92.2 | 92.8 | 94.4 | 96.3 | 100.09 | 103.68
293.15 K | 104.3 | 105.4 | 106.1 | 107.6 | 109.2 | 112.47 | 115.73
298.15 K | 114.8 | 116.1 | 116.8 | 118.3 | 119.8 | 122.69 | 125.65
303.15 K | 123.8 | 125.6 | 126.3 | 127.5 | 128.8 | 131.45 | 134.16
308.15 K | 132.3 | 133.5 | 134.1 | 135.4 | 136.6 | 138.97 | 141.5
313.15 K | 139.7 | 140.5 | 141 | 142.1 | 143.3 | 145.58 | 147.86
318.15 K | 145.3 | 146.2 | 146.7 | 147.9 | 149 | 151.1 | 153.28
323.15 K | 150 | 151.2 | 151.8 | 153 | 154.1 | 156.06 | 158.13
328.15 K | 155 | 156 | 156.5 | 157.5 | 158.6 | 160.5 | 162.4
333.15 K | 159 | 160.2 | 160.7 | 161.7 | 162.6 | 164.4 | 166.3
338.15 K | 163 | 163.7 | 164.2 | 165.2 | 166.2 | 167.9 | 169.76
343.15 K | 166 | 167 | 167.4 | 168.3 | 169.2 | 170.9 | 172.7
348.15 K | 169 | 170.1 | 170.4 | 171.1 | 172 | 173.7 | 175.4
353.15 K | 171 | 172.2 | 172.6 | 173.6 | 174.4 | 176.1 | 177.8
358.15 K | 174 | 174.3 | 174.9 | 175.8 | 176.7 | 178.3 | 180
363.15 K | 176 | 176.2 | 176.7 | 177.7 | 178.5 | 180.2 | 181.8
368.15 K | 177 | 177.8 | 178.2 | 179.2 | 180.1 | 181.7 | 183.4
373.15 K | 178 | 179.3 | 179.6 | 180.5 | 181.4 | 183.1 | 184.7
378.15 K | 180 | 180.4 | 180.7 | 181.6 | 182.5 | 184.2 | 185.8
383.15 K | 181 | 181 | 181.4 | 182.4 | 183.3 | 185.2 | 186.8
388.15 K | 181 | 182 | 182.1 | 183 | 184 | 186 | 187.4
393.15 K | 182 | 182 | 182.5 | 183.5 | 184.4 | 186.5 | 187.9
